Test results published in patent US7238716B2, “Alkanoic acid derivatives process for their production and use thereof” (Takeda Pharmaceuticals Company Limited, priority 2000, dated 2007).
Read-outs that look alike come from different tables or passages of the source.

Legend:
KKA^y mice = test: Total cholesterol lowering action and plasma anti-arteriosclerosis index enhancing action in mice (Test Example 2); assay type: in vivo; conditions: Mus musculus, po, 96 h, four days; for change in vivo at 0.005 % / change in vivo at 0.01 %: percent increase of [(HDL cholesterol/total cholesterol)×100] vs non-administration group; for change in vivo at 0.005 % / inhibition in vivo at 0.005 %: 0.005% in powdery diet; for inhibition in vivo at 0.005 % / inhibition in vivo at 0.01 %: percent reduction of plasma total cholesterol level vs non-administration group; for change in vivo at 0.01 % / inhibition in vivo at 0.01 %: 0.01% in powdery diet
Text: Test compounds were mixed in a powdery diet (CE-2, Japan Clea) the concentration of 0.01% (compounds of Examples 7, 26, 29 and 32) or 0.005% (compounds of Examples 1, 11, 15, 18, 24, 36, 37, 41, 48, 50, 51, 52, 58, 62, 79, 88, 91, 92, 93, 97, 107, 110, 129 and 130), and freely given to KKA^y mice (11 to 12 weeks old, 5 mice per group), a model of type-2 diabetes mellitus, for four days. During this period, water was given freely. Blood was sampled from orbital venous plexus and components were analyzed using the plasma separated from the blood. Total cholesterol levels were determined by using L type Wako Cholesterol (Wako Pure Chemical Industries, Ltd). Precipitation reagent for HDL cholesterol (Wako Pure Chemical Industries, Ltd.) was added to a part of the plasma to precipitate non-HDL lipoprotein, and cholesterol (HDL cholesterol) in the resulting supernatant was determined. The plasma anti-arteriosclerosis index [(HDL cholesterol/total cholesterol)×100] was calculated by using these cholesterol levels.
In the Table, “Total cholesterol lowering action (%)” represents the percent reduction (%) of total cholesterol level in the test compound administration group, when the total cholesterol level in the test compound non-administration group is taken as 100%. “Plasma anti-arteriosclerosis index-enhancing action (%)” represents the percent increase (%) of plasma anti-arteriosclerosis index in the test compound administration group, when the plasma anti-arteriosclerosis index in the test compound non-administration group is taken as 100%.

KKAY mice = test: Hypoglycemic and hypolipidemic actions in mice (Test Example 1); assay type: in vivo; conditions: Mus musculus, po, 96 h, four days; for inhibition in vivo at 0.005 %: 0.005% in powdery diet; for inhibition in vivo at 0.01 %: 0.01% in powdery diet
Text: Test compounds were mixed in a powdery diet (CE-2, Japan Clea) at the concentration of 0.01% (compounds of Examples 7, 26, 29, 32) or 0.005% (compounds of Examples 1, 11, 15, 18, 24, 36, 37, 41, 48, 50, 51, 52, 58, 62, 79, 83, 88, 90, 91, 92, 93, 97, 107, 110, 115, 119, 122, 125, 129 and 130), and freely given to KKAY mice (11 to 12 weeks old, 5 mice in a group), a model of type 2 diabetes mellitus, for four days. During this period, water was given freely. Blood was sampled from orbital venous plexus, and glucose and triglyceride levels in plasma separated from blood were determined enzymatically using L type Wako Glu2 (Wako Pure Chemical Industries, Ltd.) or L type Wako TG.H (Wako Pure Chemical Industries, Ltd.), respectively.
In the Table, “hypoglycemic action (%)” means a percent reduction (%) of the glucose level in the test compound administration group when that of the test compound non-administration group is taken as 100%. In addition, the “hypolipidemic action (%)” means a percent reduction (%) of the triglyceride level in the test compound administration group when that of the test compound non-administration group is taken as 100%.

[1] = percent reduction of plasma glucose level vs non-administration group, read-out: hypoglycemic action (%)
[2] = percent reduction of plasma triglyceride level vs non-administration group, read-out: hypolipidemic action (%)

SMILES	change in vivo at 0.005 % (KKA^y mice) [%]	inhibition in vivo at 0.005 % (KKA^y mice) [%]	inhibition in vivo at 0.005 % (KKAY mice; [1]) [%]	inhibition in vivo at 0.005 % (KKAY mice; [2]) [%]	change in vivo at 0.01 % (KKA^y mice) [%]	inhibition in vivo at 0.01 % (KKA^y mice) [%]	inhibition in vivo at 0.01 % (KKAY mice; [1]) [%]	inhibition in vivo at 0.01 % (KKAY mice; [2]) [%]
Cc1oc(-c2ccccc2)nc1COc1ccc(COc2cccc(CC(=O)O)c2)cc1 [Example 1, 2-[3-[4-[(5-methyl-2-phenyl-4-oxazolyl)methoxy]benzyloxy]phenyl]acetic acid]	11	7	21	33				
CCOc1ccc(OCc2ccc(OCc3nc(-c4ccccc4)oc3C)cc2)cc1CCC(=O)O [Example 7, 3-[2-ethoxy-5-[4-[(5-methyl-2-phenyl-4-oxazolyl)methoxy]benzyloxy]phenyl]propionic acid]					15	17	48	62
Cc1oc(-c2ccccc2)nc1COc1ccc(COc2ccccc2CC(=O)O)cc1 [Example 11, 2-[2-[4-[(5-methyl-2-phenyl-4-oxazolyl)methoxy]benzyloxy]phenyl]acetic acid]	18	23	56	84				
Cc1ccc(OCc2ccc(OCc3nc(-c4ccccc4)oc3C)cc2)c(CC(=O)O)c1 [Example 15, 2-[5-methyl-2-[4-[(5-methyl-2-phenyl-4-oxazolyl)methoxy]benzyloxy]phenyl]acetic acid]	4	25	49	60				
Cc1oc(-c2ccccc2)nc1COc1ccc(COc2ccc(Cl)cc2CC(=O)O)cc1 [Example 18, 2-[5-chloro-2-[4-[(5-methyl-2-phenyl-4-oxazolyl)methoxy]benzyloxy]phenyl]acetic acid]	12	23	41	34				
COc1ccc(OCc2ccc(OCc3nc(-c4ccccc4)oc3C)cc2)c(CC(=O)O)c1 [Example 24, 2-[5-methoxy-2-[4-[(5-methyl-2-phenyl-4-oxazolyl)methoxy]benzyloxy]phenyl]acetic acid]	17	10	49	67				
CCOc1ccc(OCc2ccc(OCc3nc(-c4ccccc4)oc3C)cc2)c(CC(=O)O)c1 [Example 26, 2-[5-ethoxy-2-[4-[(5-methyl-2-phenyl-4-oxazolyl)methoxy]benzyloxy]phenyl]acetic acid]					16	20	53	88
CCOc1ccc(OCc2ccc(OCc3nc(-c4ccccc4)oc3C)cc2)c(CCC(=O)O)c1 [Example 29, 3-[5-ethoxy-2-[4-[(5-methyl-2-phenyl-4-oxazolyl)methoxy]benzyloxy]phenyl]propionic acid]					20	21	58	67
Cc1oc(-c2ccccc2)nc1COc1cccc(COc2cccc(CC(=O)O)c2)c1 [Example 32, 2-[[3-[3-(5-methyl-2-phenyl-4-oxazolyl)methoxy]benzyloxy]phenyl]acetic acid]					10	2	40	53
Cc1oc(-c2ccccc2)nc1COc1ccc(COc2ncccc2CC(=O)O)cc1 [Example 36, 2-[2-[4-[(5-methyl-2-phenyl-4-oxazolyl)methoxy]benzyloxy]-3-pyridyl]acetic acid]	34	19	55	71				
Cc1oc(-c2ccccc2)nc1COc1ccc(COc2cccnc2CC(=O)O)cc1 [Example 37, 2-[3-[4-[(5-methyl-2-phenyl-4-oxazolyl)methoxy]benzyloxy]-2-pyridyl]acetic acid]	19	15	50	61				
Cc1oc(-c2ccccc2)nc1COc1ccc(COc2ccccc2CC(=O)O)cn1 [Example 41, 2-[2-[[6-[(5-methyl-2-phenyl-4-oxazolyl)methoxy]-3-pyridyl]methoxy]phenyl]acetic acid]	28	25	48	93				
COc1cc(COc2ccccc2CC(=O)O)ccc1OCc1nc(-c2ccccc2)oc1C [Example 48, 2-[2-[3-methoxy-4-[(2-phenyl-5-methyl-4-oxazolyl)methoxy]benzyloxy]phenyl]acetic acid]	20	17	53	50				
Cc1oc(-c2ccco2)nc1COc1ccc(COc2ccccc2CC(=O)O)cc1 [Example 50, 2-[2-[4-[[2-(2-furyl)-5-methyl-4-oxazolyl]methoxy]benzyloxy]phenyl]acetic acid]	15	20	54	77				
O=C(O)Cc1ccccc1OCc1ccc(OCc2csc(-c3ccccc3)n2)cc1 [Example 51, 2-[2-[4-[(2-phenyl-4-thiazolyl)methoxy]benzyloxy]phenyl]acetic acid]	22	24	55	79				
Cc1sc(-c2ccccc2)nc1COc1ccc(COc2ccccc2CC(=O)O)cc1 [Example 52, 2-[2-[4-[(5-methyl-2-phenyl-4-thiazolyl)methoxy]benzyloxy]phenyl]acetic acid]	15	26	56	61				
Cc1oc(-c2ccccc2)nc1CCOc1ccc(COc2ccccc2CC(=O)O)cc1 [Example 58, 2-[2-[4-[2-(5-methyl-2-phenyl-4-oxazolyl)ethoxy]benzyloxy]phenyl]acetic acid]	21	20	57	75				
Cc1oc(-c2ccccc2)nc1COc1cc(COc2cccc(CC(=O)O)c2)ccn1 [Example 62, 2-[3-[2-[(5-methyl-2-phenyl-4-oxazolyl)methoxy]-4-pyridylmethoxy]phenyl]acetic acid]	15	9	47	44				
Cc1oc(-c2ccccc2)nc1COc1cc(COc2ccccc2CC(=O)O)on1 [Example 79, 2-[2-[3-(5-methyl-2-phenyl-4-oxazolylmethoxy)-5-isoxazoly]methoxylphenyl]acetic acid]	42	39	54	96				
Cc1oc(-c2ccccc2)nc1COc1ccc(COc2ncccc2CC(=O)O)cn1 [Example 88, 2-[2-[[6-[(5-methyl-2-phenyl-4-oxazolyl)methoxy]-3-pyridyl]methoxy]-3-pyridyl]acetic acid]	22	10	47	90				
COc1cc(COc2ncccc2CC(=O)O)ccc1OCc1nc(-c2ccccc2)oc1C [Example 91, 2-[2-[3-methoxy-4-[(2-phenyl-5-methyl-4-oxazolyl)methoxy]benzyloxy]-3-pyridyl]acetic acid]	16	6	50	67				
